Source: publication PMC8746696 (Molecules, 2021)

Key:
[1] = target: T1, recombinant human TDP2 (Homo sapiens, UniProt O95551); test: Gel-based TDP2 activity assay (removal of 5'-tyrosine from oligonucleotide, PAGE); type: biochemical; design: key to Tdp2 activity, c 200 µM / Tdp2 (inhibitor concentration 1 mM): TDP2 active (+); -: inactive (−); conditions: for Tdp2 activity, c 200 µM: c 200 µM (Table S3 head); for Tdp2 (inhibitor concentration 1 mM) / remaining activity at 1000 µM: inhibitor 1 mM; for remaining activity at 1000 µM: residual enzyme activity, read-out: TDP2 (Inhibitor Concentration 1 mM), residual activity of TDP2
T1 sequence (O95551 1-362): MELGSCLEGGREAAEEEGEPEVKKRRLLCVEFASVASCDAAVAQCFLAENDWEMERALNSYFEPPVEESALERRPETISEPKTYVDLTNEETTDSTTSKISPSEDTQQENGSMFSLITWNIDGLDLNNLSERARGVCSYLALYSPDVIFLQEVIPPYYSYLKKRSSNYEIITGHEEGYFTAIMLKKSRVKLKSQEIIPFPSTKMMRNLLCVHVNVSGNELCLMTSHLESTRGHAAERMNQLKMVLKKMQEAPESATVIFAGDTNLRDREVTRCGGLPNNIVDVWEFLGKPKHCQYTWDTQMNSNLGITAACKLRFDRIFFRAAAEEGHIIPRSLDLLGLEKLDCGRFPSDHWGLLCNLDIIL
Protocol: We investigated the activity against the TDP2 enzyme for compounds 4–10, 12–15, and 17–19 (Table 1). TDP2 was tested for its ability to eliminate tyrosine residue from the 5’-end of the oligonucleotide substrate. The TDP2 reaction products were separated under denaturing conditions in polyacrylamide gel (PAGE). […] Note that as different assays formats were used for TDP1 and TDP2 inhibition, the value of these assays cannot be directly compared. A paper on derivatives of usnic acid as effective TDP1 inhibitors and mild inhibitors of TDP2 was recently published. […] More inhibitors of this enzyme have also been reported in the literature. Obviously, further work for increasing activity against TDP2 is needed.
The oligonucleotide with tyrosine residue on the 5′-end (5′-tyrosine-AAC GTC AGG GTC TTC C-FAM-3′) was used for the TDP2 enzyme activity assay. The TDP2 reaction products were separated under denaturing conditions in polyacrylamide gel (PAGE). The reaction was performed in a final volume of 20 μL using 100 nM substrate incubated with 200 nM recombinant human TDP2 in the absence or presence of the inhibitor for 10 min at 37 °C in a buffer containing 50 mM Tris-HCl, pH 8.0, 50 mM NaCl, 7 mM β-mercaptoethanol. Reactions were terminated by the addition of gel loading buffer contained 10% formamide, 7 M carbamide, 0.1% xylene cyanol, and 0,1% bromophenol blue. The samples were heated at 90 °C for 7 min before loading on the gel. The reaction products were separated by electrophoresis in a 20% denaturing PAGE with 7 M carbamide. A Typhoon FLA 9500 phosphorimager (GE Healthcare) was used for gel scanning and imaging. Each experiment was carried out in three independent replicates. The data were analyzed with QuantityOne 4.6.7 software.

[2] = tested on: HeLa cells; test: Intrinsic cytotoxicity, EZ4U assay, HeLa
Protocol: (§1) Next, we examined the intrinsic cytotoxicity of the compounds on HeLa cervical cancer cells and human embryonic kidney derived cells HEK293A.
(§2) Cytotoxicity of the compounds to HeLa (human cervical cancer) and HEK293A (human embryonic kidney) cell lines was examined using the EZ4U Cell Proliferation and Cytotoxicity Assay (Biomedica, Vienna, Austria), according to the manufacturer’s protocols. The cells were grown in Iscove’s modified Dulbecco’s medium (IMDM) with 40 μg/mL gentamicin, 50 IU/mL penicillin, 50 μg/mL streptomycin (MP Biomedicals, Waltham, MA, USA), and 10% of fetal bovine serum (Biolot, Saint Petersburg, Russia) in a 5% CO2 atmosphere. After the formation of a 30–50%monolayer, the tested compounds were added to the medium. […] The volume of the added reagents was 1/100 of the total volume of the culture medium, and the amount of DMSO was 1% of the final volume. Control cells were grown in the presence of 1% DMSO. The cell culture was monitored for three days.

[3] = Intrinsic cytotoxicity, EZ4U assay, HeLa; conditions: human, HeLa cells
Protocol: as §1, §2

[4] = Intrinsic cytotoxicity, EZ4U assay, HEK293A; conditions: human, HEK293A cells
Protocol: as §1, §2

[5] = tested on: HeLa cells; test: Influence on topotecan cytotoxicity (sensitization, combination index); type: cell-based, human; conditions: compound 5 μM
[6] = target: TDP1 (Homo sapiens, UniProt Q9NUW8); test: Real-time fluorescence detection of TDP1 activity (FAM/BHQ1 oligonucleotide biosensor); type: biochemical; conditions: concentration that inhibits the activity of the enzyme by 50%; read-out: TDP1 IC50
TDP1, sequence (Q9NUW8 whole entry): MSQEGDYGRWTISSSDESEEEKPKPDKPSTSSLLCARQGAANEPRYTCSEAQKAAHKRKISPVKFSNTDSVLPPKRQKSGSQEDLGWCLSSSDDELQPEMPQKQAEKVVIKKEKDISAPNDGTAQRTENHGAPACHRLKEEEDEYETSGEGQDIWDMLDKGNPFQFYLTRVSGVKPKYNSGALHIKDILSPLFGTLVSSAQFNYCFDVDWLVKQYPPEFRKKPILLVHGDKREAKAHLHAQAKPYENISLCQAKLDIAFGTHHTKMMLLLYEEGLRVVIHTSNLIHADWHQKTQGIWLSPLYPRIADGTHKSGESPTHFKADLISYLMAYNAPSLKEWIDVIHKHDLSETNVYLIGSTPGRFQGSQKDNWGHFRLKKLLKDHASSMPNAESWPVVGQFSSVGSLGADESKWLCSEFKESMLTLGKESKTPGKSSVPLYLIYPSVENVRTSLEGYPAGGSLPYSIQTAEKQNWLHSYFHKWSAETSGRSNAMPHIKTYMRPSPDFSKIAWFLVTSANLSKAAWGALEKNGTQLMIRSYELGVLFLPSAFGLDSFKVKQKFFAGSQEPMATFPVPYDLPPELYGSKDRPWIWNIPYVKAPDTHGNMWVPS
Excerpt: For real-time detection of TDP1 activity, we used the oligonucleotide biosensor based on the ability of TDP1 to remove fluorophore quenchers from the 3′-end of DNA [29]. The hexadecameric oligonucleotide carried 5(6)-carboxyfluorescein (FAM) at the 5′-end and fluorophore quencher BHQ1 (Black Hole Quencher-1) at the 3′-end. TDP1 inhibitors prevent the removal of fluorophore quenchers, thus reducing fluorescence intensity.
TDP1 activity was detected, as described by intensity measurement in a reaction of quencher removal from a fluorophore quencher–coupled DNA oligonucleotide catalyzed by TDP1. The reaction was carried out at different concentrations of inhibitors (the control samples contained 1% of DMSO). The reaction mixtures contained TDP1 buffer (50 mM Tris-HCl pH 8.0, 50 mM NaCl, and 7 mM β-mercaptoethanol), 50 nM biosensor, and an inhibitor being tested. Purified TDP1 (1.5 nM) triggered the reaction. The biosensor (5′-[FAM] AAC GTC AGGGTC TTC C [BHQ]-3′) was synthesized in the Laboratory of Nucleic Acid Chemistry at the Institute of Chemical Biology and Fundamental Medicine (Novosibirsk, Russia).
The reactions were incubated on a POLARstar OPTIMA fluorimeter (BMG LABTECH, GmbH, Ortenberg, Germany) to measure fluorescence every 60 s (ex. 485/em. 520 nm) during the linear phase (here, data from minute 0 to minute 8). The values of IC50 were determined using a six-point concentration response curve in a minimum of three independent experiments and were calculated using MARS Data Analysis 2.0 (BMG LABTECH, Ortenberg, Germany).

[7] = tested on: HeLa cells; test: Influence on topotecan cytotoxicity (sensitization, combination index); type: cell-based, human
Protocol: The inhibitors were studied, using their non-toxic concentration, to determine the cytotoxicity of topotecan, which is widely used in the treatment of cancer.
The concentration of these two compounds was increased to 10 μM and a more distinct effect was observed (Figure 3B). The combination index (CI) for different concentrations of topotecan and 5 at 10 μM was in the range 0.26–0.44, and for 8 at 10 μM, it was 0.18–0.30 (Supplementary Materials, Tables S1 and S2). CI value <1 indicates a synergistic effect of topotecan and compounds 5 and 8 [34].
The cell culture was monitored for three days.

[8] = tested on: HeLa cells
Protocol: as §1, §2

Structure (SMILES) | Tdp2 activity, c 200 µM [1] | Tdp2 (inhibitor concentration 1 mM) [1] | remaining activity at 1000 µM [1] [%] | HeLa cell death ([2]; at 20 μM) [%] | HeLa cell death ([2]; at 100 μM) | CC50 at 72 h [3] [µM] | CC50 at 72 h [4] [µM] | sensitizing effect on topotecan cytotoxicity [5] | IC50 [6] [µM] | CI ([7]; Dose Tpc 0.5 + compound 10 μM) | Effect ([7]; Dose Tpc 0.5 + compound 10 μM) | CI ([7]; Dose Tpc 1.0 + compound 10 μM) | Effect ([7]; Dose Tpc 1.0 + compound 10 μM) | CI ([7]; Dose Tpc 2.0 + compound 10 μM) | Effect ([7]; Dose Tpc 2.0 + compound 10 μM) | CI ([7]; Dose Tpc 4.0 + compound 10 μM) | Effect ([7]; Dose Tpc 4.0 + compound 10 μM) | CI ([7]; Dose Tpc 0.3 + compound 10 μM) | Effect ([7]; Dose Tpc 0.3 + compound 10 μM) | semi-toxic concentrations [8]
C[C@H](CCC(=O)Nc1ccc(Br)cc1)[C@H]1CC[C@H]2[C@@H]3CC[C@@H]4C[C@H](OCc5ccccc5)CC[C@]4(C)[C@H]3C[C@H](O)[C@]12C [Compound 8, N-(4′-Bromophenyl)-3α-benzyloxy-12α-hydroxy-5β-cholane-24-amide] | + | + | 47 ± 3 | 40 | maintaining this level of toxicity | > 100 | > 100 | greatest sensitizing effect | 0.57 ± 0.3 | 0.2446 | 0.67 | 0.2817 | 0.78 | 0.1757 | 0.92 | 0.3046 | 0.93 | – | – | –
C[C@H](CCC(=O)NCCc1c[nH]c2ccccc12)[C@H]1CC[C@H]2[C@@H]3CC[C@@H]4C[C@H](OCc5ccccc5)CC[C@]4(C)[C@H]3C[C@H](O)[C@]12C [Compound 5, N-(2″-(1H-Indol-3′-yl)ethyl)-3α-benzyloxy-12α-hydroxy-5β-cholane-24-amide] | + | + | 28 ± 5 | – | 40% | > 100 | > 100 | greatest sensitizing effect | 0.24 ± 0.01 | 0.3748 | 0.76 | 0.3937 | 0.86 | 0.2628 | 0.95 | 0.4189 | 0.96 | 0.4463 | 0.61 | –
CC[C@@]1(O)C(=O)OCc2c1cc1n(c2=O)Cc2cc3c(CN(C)C)c(O)ccc3nc2-1 [Topotecan, reference compound] | – | – | – | – | – | 0.9 ± 0.1 | 0.33 ± 0.07 | – | – | – | – | – | – | – | – | – | – | – | – | submicromolar
COc1cc([C@@H]2c3cc4c(cc3[C@@H](O[C@@H]3O[C@@H]5CO[C@@H](C)O[C@H]5[C@H](O)[C@H]3O)[C@H]3COC(=O)[C@H]23)OCO4)cc(OC)c1O [Etoposide, reference compound] | – | – | – | – | – | 6.2 ± 0.6 | 5.9 ± 1.8 | – | – | – | – | – | – | – | – | – | – | – | – | micromolar
C[C@H](CCC(=O)Nc1ccc(Br)cc1)[C@H]1CC[C@H]2[C@@H]3CC[C@@H]4C[C@H](OCc5ccccc5)CC[C@]4(C)[C@H]3CC(=O)[C@]12C [Compound 9, N-(4′-Bromophenyl)-3α-benzyloxy-12-oxo-5β-cholane-24-amide] | + | + | 39 ± 6 | – | – | > 100 | > 100 | – | 0.71 ± 0.34 | – | – | – | – | – | – | – | – | – | – | –
